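Dose response: 5 concentrations. Exposure: 48 h. Format: 96-well plates. Endpoint: linear interpolation; highest concentration if not reached. GI50 marks 50% less growth. Definition used: TGI = concentration required for complete inhibition of growth.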
How the values were obtained:
Assay in all cases: NCI anticancer screen, dose series, 48 h
[1] = test system: SF-268 CNS
[2] = test system: HOP-62 NSCLC
[3] = test system: UACC-62 melanoma
[4] = test system: 786-0 renal
[5] = test system: M14 melanoma
[6] = test system: NCI-H522 lung
[7] = test system: OVCAR-3 ovarian
[8] = test system: HT29 colon
[9] = test system: MDA-MB-231 breast
[10] = test system: MOLT-4 leukemia

C[C@]12CC[C@H](O)CC1=CC[C@@H]1[C@@H]2CC[C@]2(C)C(=O)/C(=C/c3cccc(OCCCn4ccnc4)c3)C[C@@H]12
GI50 [1]: 21.4 µM | TGI [1]: 55.6 µM | GI50 [2]: 20.4 µM | TGI [2]: 38.2 µM | GI50 [3]: 13.1 µM | TGI [3]: 30 µM | GI50 [4]: 23.2 µM | TGI [4]: 47.2 µM | GI50 [5]: 18.5 µM | TGI [5]: 33.2 µM | GI50 [6]: 16.6 µM | TGI [6]: 34.2 µM | GI50 [7]: 28.8 µM | TGI [7]: > 100 µM | GI50 [8]: 7.53 µM | TGI [8]: 27 µM | GI50 [9]: 20.6 µM | TGI [9]: 40.4 µM

Cc1c(Cl)ccc2c1NC(=O)C2(O)CC(=O)c1ccc(Cl)cc1Cl (stereo not drawn)
TGI [1]: > 50 µM | TGI [2]: > 50 µM | TGI [3]: > 50 µM | TGI [4]: > 50 µM | TGI [5]: > 50 µM | TGI [6]: > 50 µM | TGI [7]: > 50 µM | TGI [8]: > 50 µM | TGI [10]: > 50 µM | TGI [9]: > 50 µM

COc1cc(OC)c(-c2cc(=O)c3c(OC)c(OC)c(OC)c(OC)c3o2)cc1OC
TGI [1]: > 100 µM | TGI [2]: > 100 µM | TGI [3]: > 88.5 µM | TGI [4]: > 100 µM | TGI [5]: > 100 µM | TGI [6]: > 100 µM | TGI [7]: > 100 µM | TGI [8]: > 100 µM | TGI [10]: > 100 µM | TGI [9]: > 100 µM

O=c1cc2n(c(=O)[nH]1)C1OC(C(O)C1O)[C@@H]2CCO (stereo partly drawn)
TGI [1]: > 100 µM | TGI [2]: > 100 µM | TGI [3]: > 100 µM | TGI [4]: > 100 µM | TGI [5]: > 100 µM | TGI [6]: > 100 µM | TGI [8]: > 100 µM | TGI [10]: > 100 µM

O=C(NC1CCCCC1)c1c(O)[nH]c(=S)[nH]c1=O
TGI [1]: > 100 µM | TGI [2]: > 100 µM | TGI [3]: > 100 µM | TGI [4]: > 100 µM | TGI [5]: > 100 µM | TGI [6]: > 100 µM | TGI [7]: > 100 µM | TGI [8]: > 100 µM | TGI [10]: > 100 µM

CC(=O)[CH-]C(=O)c1ccccc1.CC(=O)[CH-]C(=O)c1ccccc1.[Nd+3].[OH-].[OH3+]
GI50 [1]: > 100 µM | TGI [1]: > 100 µM | GI50 [2]: > 100 µM | TGI [2]: > 100 µM | GI50 [3]: > 100 µM | TGI [3]: > 100 µM | GI50 [4]: > 100 µM | TGI [4]: > 100 µM | GI50 [5]: > 100 µM | TGI [5]: > 100 µM | GI50 [6]: > 100 µM | TGI [6]: > 100 µM | GI50 [7]: > 100 µM | TGI [7]: > 100 µM | GI50 [8]: > 100 µM | TGI [8]: > 100 µM | GI50 [10]: > 100 µM | TGI [10]: > 100 µM

C[C@@H]1O[C@@H](O[C@H]2C[C@@H](O)[C@]3(CO)C4C(CC[C@]3(O)C2)[C@@]2(O)CC[C@H](C3=CC(=O)OC3)[C@@]2(C)C[C@H]4O)[C@H](O)[C@H](O)[C@H]1O (stereo partly drawn)
GI50 [1]: 0.0189 µM | TGI [1]: 0.0642 µM | GI50 [2]: 0.0137 µM | TGI [2]: 0.0385 µM | GI50 [3]: 0.0819 µM | TGI [3]: 0.151 µM | GI50 [4]: 0.018 µM | TGI [4]: 0.0687 µM | GI50 [5]: 0.0855 µM | TGI [5]: 0.166 µM | GI50 [6]: 0.0117 µM | TGI [6]: 0.0323 µM | GI50 [7]: 0.0168 µM | TGI [7]: 0.0487 µM | GI50 [8]: 0.0248 µM | TGI [8]: 0.0836 µM | GI50 [10]: 0.0128 µM | TGI [10]: 0.0314 µM | GI50 [9]: 0.111 µM | TGI [9]: 0.286 µM

[Cu+2].[Cu+2].[O-]c1ccccc1C=Nc1ccccc1[O-].[O-]c1ccccc1C=Nc1ccccc1[O-]
GI50 [1]: 11.8 µM | TGI [1]: 24.2 µM | GI50 [2]: 21.9 µM | TGI [2]: 36.6 µM | GI50 [3]: 3.55 µM | TGI [3]: 14 µM | GI50 [4]: 7.24 µM | TGI [4]: 20.3 µM | GI50 [5]: 4.45 µM | TGI [5]: 15.3 µM | GI50 [6]: 2.39 µM | TGI [6]: 6.24 µM | GI50 [7]: 5.56 µM | TGI [7]: 15.8 µM | GI50 [8]: 6.05 µM | TGI [8]: 27.4 µM | GI50 [10]: 2.99 µM | TGI [10]: 9.97 µM

CCCCN(CC)C(=O)C(=O)C1C(=O)Nc2ccccc2S1=O (stereo not drawn)
TGI [1]: > 100 µM | TGI [2]: > 100 µM | TGI [3]: > 100 µM | TGI [4]: > 100 µM | TGI [5]: > 100 µM | TGI [6]: > 100 µM | TGI [7]: > 100 µM | TGI [8]: > 100 µM | TGI [10]: > 100 µM

CC1=CC[C@@H]2[C@@H](CC[C@@]2(C)O)C(C)(C)[C@H]1CC[C@@H]1[C@@]2(C)CCC(=O)C(C)(C)O[C@@H]2CC[C@]1(C)O
TGI [1]: > 100 µM | TGI [2]: > 100 µM | TGI [3]: 34.9 µM | TGI [4]: 59.6 µM | TGI [5]: 59.3 µM | TGI [6]: 38.9 µM | TGI [7]: > 100 µM | TGI [10]: 68.5 µM | TGI [9]: > 100 µM

COc1nc(OC)c2c(=O)oc(-c3ccccc3)cc2n1
TGI [1]: > 100 µM | TGI [3]: > 100 µM | TGI [4]: > 100 µM | TGI [6]: > 100 µM | TGI [8]: > 100 µM | TGI [10]: > 100 µM

CCc1nc2c(O)ccc(O)c2nc1C
TGI [1]: 34.2 µM | TGI [2]: 32.3 µM | TGI [3]: 27.5 µM | TGI [4]: 26.3 µM | TGI [5]: 28.3 µM | TGI [6]: 6.47 µM | TGI [7]: 28.5 µM | TGI [8]: 34.9 µM | TGI [10]: > 39.5 µM

O=C(O)CSc1n[nH]c(/C=C/c2ccccc2)n1
TGI [1]: > 100 µM | TGI [2]: > 100 µM | TGI [3]: > 100 µM | TGI [4]: > 100 µM | TGI [5]: > 100 µM | TGI [6]: > 100 µM | TGI [7]: > 100 µM | TGI [8]: > 100 µM | TGI [10]: > 100 µM

COC(=O)N1[C@H]2Cc3c(OC)c(C)c(OC)c(OC)c3[C@@H]1/C(=C\c1cc(OC)c(OC)c(C)c1OC)N(Cc1ccccc1)C2=O
TGI [1]: > 100 µM | TGI [2]: > 100 µM | TGI [3]: > 100 µM | TGI [4]: > 100 µM | TGI [5]: > 100 µM | TGI [6]: 37.2 µM | TGI [7]: > 100 µM | TGI [8]: > 100 µM | TGI [10]: 75.2 µM

COC(=O)c1cnc2nc(N3CCOCC3)[nH]n2c1=O
TGI [1]: > 100 µM | TGI [2]: > 100 µM | TGI [3]: > 100 µM | TGI [4]: > 100 µM | TGI [5]: > 100 µM | TGI [6]: > 100 µM | TGI [7]: > 100 µM | TGI [8]: > 100 µM | TGI [10]: > 100 µM

C=C1C(=O)O[C@@H]2C[C@]3(C)[C@@H](C[C@H]12)[C@](C)(O)CC[C@@H]3O
TGI [1]: > 100 µM | TGI [2]: > 100 µM | TGI [3]: > 100 µM | TGI [4]: > 100 µM | TGI [5]: > 100 µM | TGI [6]: > 100 µM | TGI [7]: > 100 µM | TGI [8]: > 100 µM | TGI [10]: > 100 µM

CC(NC(=O)c1ccccc1)C(=O)N(Cc1ccccc1)Cc1ccccc1 (stereo not drawn)
TGI [1]: > 100 µM | TGI [2]: 66.4 µM | TGI [3]: 30.7 µM | TGI [4]: > 100 µM | TGI [5]: 39.1 µM | TGI [6]: 65.2 µM | TGI [8]: > 100 µM | TGI [10]: 35.6 µM

O=C(NO)c1ccc(C(=O)NO)cc1
TGI [1]: > 100 µM | TGI [2]: > 100 µM | TGI [3]: > 100 µM | TGI [4]: > 100 µM | TGI [5]: > 100 µM | TGI [7]: > 100 µM | TGI [8]: > 100 µM | TGI [10]: 92.9 µM | TGI [9]: > 100 µM

CN(C(=O)C1CCCCC1)c1ccccc1I(=O)=O
GI50 [1]: 36.8 µM | TGI [1]: > 100 µM | GI50 [3]: 72.4 µM | TGI [3]: > 100 µM | GI50 [4]: 43.3 µM | TGI [4]: > 100 µM | GI50 [6]: 16.3 µM | TGI [6]: 30.2 µM | GI50 [7]: 30.5 µM | TGI [7]: > 100 µM | GI50 [8]: 33.8 µM | TGI [8]: > 100 µM | GI50 [10]: 18 µM | TGI [10]: 51.8 µM | GI50 [9]: 70 µM | TGI [9]: > 100 µM
